In patent US7235548B2, “Compounds and their use as positive AMPA receptor modulators” (NeuroSearch A/S, priority 1998, dated 2007):

Test system: NMRI mice
Assay: Passive avoidance (associative memory)
Assay type: in vivo, mouse
Conditions: mice pre-treated before training, test after 24 hours; different concentrations; FIG. 17
Protocol: PURPOSE: To test the pharmacological effect of compounds on associative memory.
PRINCIPLE: A Mouse is placed in a light compartment with access to a dark compartment. If it enter the dark compartment it will receive a foot-shock (0.4 mA). After a delay (24 hours) the association to risk an unpleasant foot-shock by re-entering the dark compartment is tested.
ANIMALS: Female NMRI mice (Bomholdtgaard, DK) weighing 22–25 g were used. The mice were kept in Macrolon plastic cages with free access to food (Altromin, DK) and tap water. The mice were habituated to the laboratory for at least 3 days before testing (light on 7:00am/light off 7:00 pm).
EQUIPMENT: The passive avoidance apparatus consisted of a modular test chambers (ENV-307, MED-Associates, US). The light and the dark compartment consisted of plexiglas boxes of equal size (15×17×13 cm; width×length×height) with metal grid floors. A sliding guillotine door was located at the aperture (4×4 cm) connecting the two compartments. […]
[…]: Entry latency (sec) to re-enter the dark compartment was measured. […]
Training: One mouse is placed in the light compartment and the guillotine door to the dark compartment is opened. […] Test: After a delay (24 hours) the mouse will re-enter the light compartment and time latency to enter the dark compartment is measured with a time limit at 2 minutes. […]

CN1CCN(S(=O)(=O)c2ccc3c(c2)S(=O)(=O)NC(C2CCCCC2)N3)CC1 (stereo not shown) [Compound 61, 3-Cyclohexyl-7-(4′-methylpiperazino)sulfonyl-1,2,3,4-tetrahydro-1,2,4-benzothiadiazine-1,1-dioxide]
entry latency to re-enter the dark compartment (memory): memory enhancing effect
